Measurements: PMC12669040, “Tumour-specific STING agonist synthesis via a two-component prodrug system” (Nature Chemistry, 2025)
Several values for one entry are separate records, joined by “and”; a condition that tells them apart may be missing. Identical values can stand only once.

Tests used:
[1] = tested on: non-tumour zebrafish larvae; assay: Maximum tolerated concentration (MTC) on non-tumour zebrafish larvae; format: in vivo, zebrafish (Danio rerio)
Procedure: Extended Data Fig. 7 Additional zebrafish experiment data. a MTC of β-GlcA-N1/E4 treatments on non-tumor zebrafish larvae. […] Toxicity was assessed daily by counting the total number of dead larvae and checking for the presence of morphologic changes such cardiac edemas or curved tails. Control groups were treated with the highest matched DMSO concentration (0.04%, v/v). b Left: representative image of phagocytosis in a xenograft treated with β-GlcA-N1/E4 and β-glucuronidase at 2dpi in Tg(mpeg1:mcherry-F). Each yellow arrow indicates a phagocytic event. Right: n° of phagocytic events at 2dpi. Data are presented as mean ± SEM. Statistical analysis follows that of Fig. 5. Source data

Hs578T xenografts = assay: Hs578T zebrafish xenograft model; details: for 2dpi phagocytosis: individual larvae; for M1 (M1/M2) / M2 (M1/M2) / Caspase-3 / TAM / Tumor Size: replicate values; for apoptosis (activated Caspase 3) in xenografts: 4 dpi, MSA2 15 μM, SC2S 0.62 μM, β-GlcA-N1/E4 20 μM each

Row | Compound | 2dpi phagocytosis (Hs578T xenografts; experiment 230522) | 2dpi phagocytosis (Hs578T xenografts; experiment 230726) | M1 (M1/M2) (Hs578T xenografts; 2dpi) | M2 (M1/M2) (Hs578T xenografts; 2dpi) | apoptosis (activated Caspase 3) in xenografts (Hs578T xenografts) | M1 (M1/M2) (Hs578T xenografts; 4dpi) | M2 (M1/M2) (Hs578T xenografts; 4dpi) | Caspase-3 (Hs578T xenografts; experiment 230522) | TAM (Hs578T xenografts; experiment 230522) | Tumor Size (Hs578T xenografts; experiment 230522) | Caspase-3 (Hs578T xenografts; experiment 230726) | TAM (Hs578T xenografts; experiment 230726) | Tumor Size (Hs578T xenografts; experiment 230726) | also measured
1 | COc1cc2cc(C(=O)CCC(=O)O)sc2cc1OC [MSA2] | 35 and 14 and 22 and 25 and 15 | 13 and 22 and 48 and 31 and 19 and 33 and 17 | 60 and 67.5676 and 80 and 70.8333 and 69.7674 and 76.1905 and 64.1026 and 75 and 95.082 and 71.7949 and 80.6452 and 74.4681 and 72.4638 and 63.6364 | 40 and 32.4324 and 20 and 29.1667 and 30.2326 and 23.8095 and 35.8974 and 25 and 4.918 and 28.2051 and 19.3548 and 25.5319 and 27.5362 and 36.3636 | significantly induced apoptosis | 35.7143 and 18.1818 and 40 (2×) and 21.0526 and 50 (3×) and 20 and 60 (2×) and 61.1111 and 28.125 and 25 | 64.2857 and 81.8182 and 60 (2×) and 78.9474 and 50 (3×) and 80 and 40 (2×) and 38.8889 and 71.875 and 75 | 1.291 and 1.3466 and 1.247 and 1.364 and 1.32 and 1.585 and 1.384 and 1.691 and 1.403 and 2.142 and 1.383 | 1.785 and 1.828 and 1.882 and 4.773 and 1.144 and 1.242 and 2.18 and 1.55 and 1.171 | 0.8654 and 0.6638 and 0.8064 and 0.8329 and 0.9735 and 0.8457 and 0.6726 and 0.8811 and 0.8231 and 0.9824 and 0.6461 | 1.714 and 1.239 and 2.528 and 1.801 and 0.8175 and 0.6878 and 1.986 and 0.813 and 0.7306 and 1.755 | 1.62 and 4.474 and 2.224 and 3.257 and 1.206 and 1.259 | 0.8603 and 1.051 and 0.553 and 0.606 and 0.4686 and 0.6683 and 0.7425 and 0.3533 and 0.734 and 0.8296 | MSA2 MTC, event per larva (0/1) ([1]; 15 μM, day 3): 0; MSA2 MTC, survival event code per larva ([1]; 15 μM, Days 3, one cell per larva (0/1 code)): 0; MSA2 MTC, event per larva (0/1) ([1]; 75 μM, day 1): 0; MSA2 MTC, event per larva (0/1) ([1]; 75 μM, day 3): 1; MSA2 MTC, survival event code per larva ([1]; 75 μM, Days 3, one cell per larva (0/1 code)): 0; MSA2 MTC, survival event code per larva ([1]; 150 μM, Days 3, one cell per larva (0/1 code)): 0
2 | COc1cc2sc(C(=O)CCC(=O)O)cc2cc1SCCSc1cc2cc(C(=O)CCC(=O)O)sc2cc1OC [SC2S] | 35 and 30 and 42 and 17 and 0* and 22 and 16 | 62 and 48 and 23 and 18 and 44 and 12 and 10 and 20 | 56.4103 and 69.5652 and 75.5556 and 67.5 and 90 and 84.6154 and 78.7234 and 82.8947 and 70.4918 and 72.549 and 65.3846 and 65 and 82.6087 and 55.5556 and 72.2222 | 43.5897 and 30.4348 and 24.4444 and 32.5 and 10 and 15.3846 and 21.2766 and 17.1053 and 29.5082 and 27.451 and 34.6154 and 35 and 17.3913 and 44.4444 and 27.7778 | significantly induced apoptosis | 36.3636 and 58.3333 (2×) and 42.8571 and 37.5 and 12.5 and 25 and 54.5455 and 41.1765 and 31.4286 and 70.3704 and 40 and 39.1304 and 37.037 and 33.3333 | 63.6364 and 41.6667 (2×) and 57.1429 and 62.5 and 87.5 and 75 and 45.4545 and 58.8235 and 68.5714 and 29.6296 and 60 and 60.8696 and 62.963 and 66.6667 | 1.443 and 1.289 and 1.712 and 1.324 and 1.988 and 1.517 and 1.448 and 1.484 and 1.486 and 2.204 and 2.224 | 2.1705 and 1.352 and 2.571 and 2.448 and 1.557 and 1.167 | 1.033 and 0.4622 and 0.7179 and 0.9145 and 1.19 and 0.9204 and 0.6815 and 0.7277 and 0.5409 and 0.7788 | 1.045 and 1.374 and 1.091 and 2.171 and 0.9199 and 1.451 and 2.115 | 1.204 and 2.4711 and 1.9907 and 1.109 and 1.5815 and 1.362 and 3.515 and 1.246 | 0.495 and 0.08364 and 0.7374 and 1.174 and 0.7912 and 0.9371 and 0.8603 | SC2S MTC, event per larva (0/1) ([1]; 0.62 μM, day 3): 1; SC2S MTC, event per larva (0/1) ([1]; 3.1 μM, day 1): 0; SC2S MTC, event per larva (0/1) ([1]; 3.1 μM, day 3): 0; SC2S MTC, survival event code per larva ([1]; 6.2 μM, Days 3, one cell per larva (0/1 code)): 1
